Measurements as given in PubChem BioAssay AID248 (DTP/NCI, 2004).
“And” between values parts separate entries of the source, which are not always exact repeats. Equal entries are not always repeated. Inconclusive results and toxic doses are left out. No stated cut-off is given here; in the data, active means T/C of 150% or more; inactive means T/C below 125%.

System: L1210 leukemia ip in BDF1 mice, survival T/C
Assay: NCI In Vivo Anticancer Drug Screen. Data for tumor model L1210 Leukemia (intraperitoneal) in B6D2F1 (BDF1) mice
Details: endpoint: mean survival time, higher = longer survival
Procedure, shortened: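 Each compound was tested against a transplantable tumor grown in mice. The endpoint was survival, with treated animals benchmarked against vehicle controls as a simple ratio.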

[1] = dose: 100.0 mg/kg/injection, schedule: Q01DX001 (ip), vehicle: saline
[2] = dose: 200.0 mg/kg/injection, schedule: Q01DX001 (ip), vehicle: saline
[3] = dose: 400.0 mg/kg/injection, schedule: Q01DX001 (ip), vehicle: saline
[4] = dose: 100.0 mg/kg/injection, schedule: Q01DX009 (ip), vehicle: Klucel (hydroxypropylcellulose) (HPC)
[5] = dose: 200.0 mg/kg/injection, schedule: Q01DX009 (ip), vehicle: Klucel (hydroxypropylcellulose) (HPC)
[6] = dose: 100.0 mg/kg/injection, schedule: Q01DX001 (ip), vehicle: other
[7] = dose: 200.0 mg/kg/injection, schedule: Q01DX001 (ip), vehicle: other
[8] = dose: 400.0 mg/kg/injection, schedule: Q01DX001 (ip), vehicle: other
[9] = dose: 100.0 mg/kg/injection, schedule: Q04DX003 (ip), vehicle: saline
[10] = dose: 200.0 mg/kg/injection, schedule: Q04DX003 (ip), vehicle: saline
[11] = dose: 100.0 mg/kg/injection, schedule: Q01DX009 (ip), vehicle: saline with Tween-80
[12] = dose: 200.0 mg/kg/injection, schedule: Q01DX009 (ip), vehicle: saline with Tween-80
[13] = dose: 100.0 mg/kg/injection, schedule: Q04DX003 (ip), vehicle: other
[14] = dose: 200.0 mg/kg/injection, schedule: Q04DX003 (ip), vehicle: other
[15] = dose: 100.0 mg/kg/injection, schedule: Q01DX009 (ip), vehicle: saline
[16] = dose: 200.0 mg/kg/injection, schedule: Q01DX009 (ip), vehicle: saline
[17] = dose: 400.0 mg/kg/injection, schedule: Q01DX009 (ip), vehicle: saline
[18] = dose: 25.0 mg/kg/injection, schedule: Q01DX009 (ip), vehicle: saline
[19] = dose: 50.0 mg/kg/injection, schedule: Q01DX009 (ip), vehicle: saline
[20] = dose: 12.5 mg/kg/injection, schedule: Q04DX003 (ip), vehicle: saline
[21] = dose: 25.0 mg/kg/injection, schedule: Q04DX003 (ip), vehicle: saline
[22] = dose: 50.0 mg/kg/injection, schedule: Q04DX003 (ip), vehicle: saline

Measured: T/C

CC1(C)OC(=O)C(C(N)=O)C1c1ccc(Cl)cc1 (stereo not drawn)
inactive: [1] 103 % of control | [2] 104 % of control | [3] 103 % of control

CC(Oc1cc(Cl)c(Cl)cc1Cl)C(=O)ON(C)C (stereo not drawn)
inactive: [4] 100 % of control | [5] 100 % of control

CCCC(NC(=O)C(C)N)C(=O)O (stereo not drawn)
inactive: dose: 12.5 mg/kg/injection, schedule: Q04DX002 (ip), vehicle: saline 105 % of control | dose: 25.0 mg/kg/injection, schedule: Q04DX002 (ip), vehicle: saline 102 % of control | dose: 50.0 mg/kg/injection, schedule: Q04DX002 (ip), vehicle: saline 102 % of control

Cc1ccc(NC(=O)SCc2ccccc2)c([N+](=O)[O-])c1
inactive: [4] 98 % of control | [5] 100 % of control | dose: 400.0 mg/kg/injection, schedule: Q01DX009 (ip), vehicle: Klucel (hydroxypropylcellulose) (HPC) 93 % of control

O=Cc1cc([N+](=O)[O-])ccc1O
inactive: [6] 101 % of control | [7] 97 % of control | [8] 103 % of control

CCCNC(=O)C1C2CC3OC(=O)C1C3C2 (stereo not drawn)
inactive: dose: 100.0 mg/kg/injection, schedule: Q04DX003 (ip), vehicle: saline with Tween-80 90 % of control | [9] 98 % of control | dose: 200.0 mg/kg/injection, schedule: Q04DX003 (ip), vehicle: saline with Tween-80 95 % of control | [10] 91 % of control | dose: 400.0 mg/kg/injection, schedule: Q04DX003 (ip), vehicle: saline with Tween-80 93 % of control | dose: 400.0 mg/kg/injection, schedule: Q04DX003 (ip), vehicle: saline 102 % of control

CC(C)=CCc1ccc(Cl)cc1
inactive: dose: 50.0 mg/kg/injection, schedule: Q01DX009 (ip), vehicle: saline with Tween-80 94 % of control | [11] 105 % of control | [12] 102 % of control

CC(=O)C(C)(c1ccccc1)N(Cc1ccccc1)C(=O)c1ccccc1 (stereo not drawn)
inactive: [13] 93 % of control | [14] 108 % of control | dose: 400.0 mg/kg/injection, schedule: Q04DX003 (ip), vehicle: other 92 % of control

OC1C2CCN(CC2)C1CN1CCOCC1 (stereo not drawn)
inactive: [1] 107 % of control | [15] 94 % of control | [2] 108 % of control | [16] 91 % of control | [3] 97 % of control | [17] 91 % of control

CC[NH-].CC[NH-].[Br][Pt+2][Br]
inactive: [13] 122 % of control | [14] 105 % of control

O=C1N(c2ccccc2)C(c2ccccc2)SC1(Cc1ccc(Br)cc1)c1ccccc1 (stereo not drawn)
inactive: dose: 100.0 mg/kg/injection, schedule: Q01DX001 (ip), vehicle: saline with Tween-80 100 % of control | dose: 200.0 mg/kg/injection, schedule: Q01DX001 (ip), vehicle: saline with Tween-80 98 % of control | dose: 400.0 mg/kg/injection, schedule: Q01DX001 (ip), vehicle: saline with Tween-80 94 % of control

CC1CC(C)(C)[N+](C)=C(CC(O)(c2ccccc2)c2ccccc2)O1 (stereo not drawn)
inactive: dose: 6.25 mg/kg/injection, schedule: Q04DX003 (ip), vehicle: saline sonified 95 % of control | dose: 12.5 mg/kg/injection, schedule: Q04DX003 (ip), vehicle: saline sonified 104 % of control | dose: 25.0 mg/kg/injection, schedule: Q04DX003 (ip), vehicle: saline sonified 92 % of control

Cc1nc(C)c(C(=O)O)cc1C(=O)O
inactive: [15] 104 % of control | [16] 101 % of control | [17] 100 % of control

CCCCCCCCCCCCCCCCC/C=N/Nc1nnc(N/N=C/CCCCCCCCCCCCCCCCC)c2ccccc12
inactive: dose: 50.0 mg/kg/injection, schedule: Q01DX001 (ip), vehicle: saline 95 % of control | [1] 103 % of control | [2] 101 % of control | [3] 101 % of control

CS(=O)(=O)c1nnc(-c2ccc(Cl)c(Cl)c2)s1
inactive: dose: 75.0 mg/kg/injection, schedule: Q01DX001 (ip), vehicle: saline 101 % of control | dose: 75.0 mg/kg/injection, schedule: Q04DX003 (ip), vehicle: saline 110 % of control | dose: 150.0 mg/kg/injection, schedule: Q01DX001 (ip), vehicle: saline 100 % of control | dose: 150.0 mg/kg/injection, schedule: Q04DX003 (ip), vehicle: saline 95 % of control | dose: 300.0 mg/kg/injection, schedule: Q01DX001 (ip), vehicle: saline 110 % of control

O=[N+]([O-])c1ccc(N=NNc2ccc(N=Nc3ccccc3)cc2)cc1
inactive: dose: 25.0 mg/kg/injection, schedule: Q01DX009 (ip), vehicle: Klucel (hydroxypropylcellulose) (HPC) 91 % of control | dose: 25.0 mg/kg/injection, schedule: Q04DX003 (ip), vehicle: other 89 % of control | dose: 50.0 mg/kg/injection, schedule: Q01DX009 (ip), vehicle: Klucel (hydroxypropylcellulose) (HPC) 102 % of control | dose: 50.0 mg/kg/injection, schedule: Q04DX003 (ip), vehicle: other 95 % of control | [13] 92 % of control

CCCCCCC(=O)NC1=C(N2CC2)C(=O)C(NC(=O)CCCCCC)=C(N2CC2)C1=O
inactive: [18] 110 % of control | dose: 45.0 mg/kg/injection, schedule: Q01DX009 (ip), vehicle: other 124 % of control | [19] 122 % of control | dose: 51.0 mg/kg/injection, schedule: Q01DX Z (ip), vehicle: carboxymethylcellulose (CMC) 124 % of control | dose: 51.0 mg/kg/injection, schedule: Q01DX Z (ip), vehicle: methylcellulose (MC) 107 % of control | dose: 65.0 mg/kg/injection, schedule: Q01DX009 (ip), vehicle: other 118 % of control | dose: 66.0 mg/kg/injection, schedule: Q01DX009 (ip), vehicle: Klucel (hydroxypropylcellulose) (HPC) 113 % of control | dose: 76.0 mg/kg/injection, schedule: Q01DX Z (ip), vehicle: methylcellulose (MC) 96 % of control | [6] 96 % of control | [4] 101 % of control | [15] 123 % of control | dose: 100.0 mg/kg/injection, schedule: Q04DX003 (ip), vehicle: Klucel (hydroxypropylcellulose) (HPC) 111 % of control | [9] 103 % of control | dose: 115.0 mg/kg/injection, schedule: Q01DX Z (ip), vehicle: carboxymethylcellulose (CMC) 120 % of control | dose: 150.0 mg/kg/injection, schedule: Q01DX009 (ip), vehicle: Klucel (hydroxypropylcellulose) (HPC) 97 % of control and 99 % of control | dose: 172.5 mg/kg/injection, schedule: Q01DX Z (ip), vehicle: carboxymethylcellulose (CMC) 114 % of control | [7] 108 % of control | dose: 200.0 mg/kg/injection, schedule: Q01DX009 (ip), vehicle: other 100 % of control | [16] 94 % of control | [10] 113 % of control | dose: 264.0 mg/kg/injection, schedule: Q04DX003 (ip), vehicle: Klucel (hydroxypropylcellulose) (HPC) 114 % of control | dose: 264.0 mg/kg/injection, schedule: Q04DX003 (ip), vehicle: other 111 % of control | [8] 110 % of control | dose: 400.0 mg/kg/injection, schedule: Q04DX003 (ip), vehicle: Klucel (hydroxypropylcellulose) (HPC) 118 % of control

CN(C)C1CCCC(OC(=O)c2ccccc2)C1 (stereo not drawn)
inactive: dose: 100.0 mg/kg/injection, schedule: Q04DX003 (ip), vehicle: saline sonified 98 % of control

CC(=O)OC1CCC2(C)C(=CCC3C2CCC2(C)C(/C(C)=N/O)=CCC32)C1 (stereo not drawn)
inactive: [11] 96 % of control | [12] 100 % of control | dose: 400.0 mg/kg/injection, schedule: Q01DX009 (ip), vehicle: saline with Tween-80 91 % of control

CCCCCCCCCCOC(=O)C[n+]1cccc(C(=O)Nc2ccc(Cl)cc2)c1
inactive: [20] 97 % of control | [21] 105 % of control | [22] 90 % of control

Cc1ncc(C(=O)O)[nH]1
inactive: [1] 91 % of control | [2] 89 % of control | [3] 91 % of control

BrCc1cc(CBr)c(CBr)cc1CBr
inactive: dose: 12.5 mg/kg/injection, schedule: Q01DX009 (ip), vehicle: acetone 108 % of control | [20] 97 % of control | [21] 98 % of control and 114 % of control | [22] 95 % of control

C=C1CC[N+]2(C)CCCC12 (stereo not drawn)
inactive: dose: 12.5 mg/kg/injection, schedule: Q01DX009 (ip), vehicle: saline 100 % of control | [18] 113 % of control | [19] 95 % of control and 91 % of control
